Experimental data taken from ChEMBL document CHEMBL3885861, “Open TG-GATES”.
Where “and” joins values, the source holds several entries; their conditions need not be identical. Identical values can stand only once.

Species: Rattus norvegicus
Assay: Open TG-GATES - Regimen: Single
Type: toxicity, organism-based, Sprague-Dawley
Design: regimen Single, gender Male, age 6 weeks
Settings: in vivo, po, 0 mg/kg, route gavage, dose level Control; for APTT / Bas / Eos / Fbg / Hb / Ht / Lym / MCH / MCHC / MCV / Mono / Neu / PT / Plat / RBC / Ret / WBC: tissue Blood; for KIDNEY_L / KIDNEY_R / KIDNEY_TOTAL: tissue Kidney; for LIVER: tissue Liver; for ALP / ALT / AST / BUN / CRE / Ca / Cl / GLC / IP / K / LDH / Na / PL / RALB / TBIL / TC / TP / gamma-GTP: tissue Plasma

For `O=P1(N(CCCl)CCCl)NCCCO1` (stereo not given) [CYCLOPHOSPHAMIDE ANHYDROUS], the TERMINAL_BW (3 h) was 187.8 g and 193 g, the APTT (3 h) was 22.9 s and 16.1 s and the Bas (3 h) was 0% and 0.2%. The Eos (3 h) was 1% and 0.6%, the Fbg (3 h) was 287.4 mg/dL and 271.4 mg/dL and the Hb (3 h) was 13.1 g/dL and 13.4 g/dL. The Ht (3 h) was 39.1% and 39.6%, the Lym (3 h) was 84% and 75.6% and the MCH (3 h) was 21.3 pg and 21 pg. The MCHC (3 h) was 33.5% and 33.7%, the MCV (3 h) was 63.6 fL and 62.4 fL and the Mono (3 h) was 1.6% and 3.2%. The Neu (3 h) was 12.8% and 20.2%, the PT (3 h) was 15.9 s and 13.8 s and the Plat (3 h) was 124.4 x10_4/uL and 125.2 x10_4/uL. The RBC (3 h) was 614.8 x10_4/ul and 636 x10_4/ul, the Ret (3 h) was 8.6% and 9.1% and the WBC (3 h) was 75.9 x10_2/uL and 115.3 x10_2/uL. It also gave a KIDNEY_L (3 h) of 0.9 g, a KIDNEY_R (3 h) of 0.8 g and a KIDNEY_TOTAL (3 h) of 1.7 g. The LIVER (3 h) was 8.5 g and 8.2 g, the ALP (3 h) was 1691.4 IU/L and 1383.8 IU/L and the ALT (3 h) was 46.4 IU/L and 37.2 IU/L. For the same molecule, the AST (3 h) was 77.8 IU/L and 73.8 IU/L, the BUN (3 h) was 13.4 mg/dL and 10 mg/dL and the CRE (3 h) was 0.2 mg/dL. For the same molecule, the Ca (3 h) was 10.6 mg/dL and 11 mg/dL, the Cl (3 h) was 106.8 meq/L and 105.2 meq/L and the GLC (3 h) was 188.8 mg/dL and 175.4 mg/dL. For the same molecule, the IP (3 h) was 8.2 mg/dL and 8.4 mg/dL, the K (3 h) was 3.8 meq/L and 4.6 meq/L and the LDH (3 h) was 185 IU/L and 66 IU/L. For the same molecule, the Na (3 h) was 144.2 meq/L and 140.4 meq/L, the PL (3 h) was 135.6 mg/dL and 140.8 mg/dL and the RALB (3 h) was 2.9 g/dL and 2.4 g/dL. The TBIL (3 h) was 0.026 mg/dL and 0.066 mg/dL, the TC (3 h) was 78.4 mg/dL and 78 mg/dL and the TP (3 h) was 5.4 g/dL and 5.2 g/dL. The gamma-GTP (3 h) was 1 IU/L and 1.2 IU/L, the TERMINAL_BW (6 h) was 190.8 g and 192 g and the APTT (6 h) was 21.9 s and 18.3 s. For the same molecule, the Bas (6 h) was 0%, the Eos (6 h) was 0.6% and 1% and the Fbg (6 h) was 286 mg/dL and 280.6 mg/dL. For the same molecule, the Hb (6 h) was 13.3 g/dL and 12.8 g/dL, the Ht (6 h) was 39.8% and 38.3% and the Lym (6 h) was 78.6% and 76.6%. The MCH (6 h) was 21.1 pg and 20.7 pg, the MCHC (6 h) was 33.5% and the MCV (6 h) was 63.1 fL and 61.8 fL. The Mono (6 h) was 2%, the Neu (6 h) was 17.8% and 20.2% and the PT (6 h) was 16.4 s and 14 s. The Plat (6 h) was 122.5 x10_4/uL and 115 x10_4/uL, the RBC (6 h) was 630.6 x10_4/ul and 620.2 x10_4/ul and the Ret (6 h) was 8.1% and 8.5%. The WBC (6 h) was 102.3 x10_2/uL and 90.1 x10_2/uL, the KIDNEY_L (6 h) was 0.9 g and 0.8 g and the KIDNEY_R (6 h) was 0.9 g and 0.8 g. For the same molecule, the KIDNEY_TOTAL (6 h) was 1.7 g, the LIVER (6 h) was 8.1 g and the ALP (6 h) was 1329.6 IU/L and 1641.8 IU/L. For the same molecule, the ALT (6 h) was 38.8 IU/L and 34.4 IU/L, the AST (6 h) was 66.8 IU/L and 71.4 IU/L and the BUN (6 h) was 10.8 mg/dL and 10 mg/dL. For the same molecule, the CRE (6 h) was 0.1 mg/dL and 0.2 mg/dL, the Ca (6 h) was 10.6 mg/dL and 11 mg/dL and the Cl (6 h) was 106 meq/L and 106.2 meq/L. For the same molecule, the GLC (6 h) was 185.2 mg/dL and 174.8 mg/dL, the IP (6 h) was 8.9 mg/dL and 9 mg/dL and the K (6 h) was 4.2 meq/L and 4.3 meq/L. The LDH (6 h) was 166.8 IU/L and 60.6 IU/L, the Na (6 h) was 143.4 meq/L and 142.4 meq/L and the PL (6 h) was 134.2 mg/dL and 136.8 mg/dL. The RALB (6 h) was 2.8 g/dL and 2.5 g/dL, the TBIL (6 h) was 0.032 mg/dL and 0.068 mg/dL and the TC (6 h) was 75.8 mg/dL and 74.2 mg/dL. The TP (6 h) was 5.4 g/dL and 5.3 g/dL, the gamma-GTP (6 h) was 1 IU/L and the TERMINAL_BW (9 h) was 186.5 g and 187.9 g. For the same molecule, the APTT (9 h) was 20.3 s and 17.4 s, the Bas (9 h) was 0% and the Eos (9 h) was 0.6% and 1%. For the same molecule, the Fbg (9 h) was 300.4 mg/dL and 291.4 mg/dL, the Hb (9 h) was 13 g/dL and 12.7 g/dL and the Ht (9 h) was 38.9% and 38.1%. For the same molecule, the Lym (9 h) was 80.8% and 75.6%, the MCH (9 h) was 21.1 pg and 20.6 pg and the MCHC (9 h) was 33.5% and 33.3%. The MCV (9 h) was 62.9 fL and 61.8 fL, the Mono (9 h) was 1.8% and the Neu (9 h) was 16.4% and 20.8%. The PT (9 h) was 16.6 s and 13.9 s, the Plat (9 h) was 120.1 x10_4/uL and 120.7 x10_4/uL and the RBC (9 h) was 619.4 x10_4/ul and 616.6 x10_4/ul. The Ret (9 h) was 7.8% and 8.3%, the WBC (9 h) was 78.2 x10_2/uL and 80.1 x10_2/uL and the KIDNEY_L (9 h) was 0.9 g and 0.8 g. For the same molecule, the KIDNEY_R (9 h) was 0.9 g and 0.8 g, the KIDNEY_TOTAL (9 h) was 1.8 g and 1.6 g and the LIVER (9 h) was 7.7 g and 7.1 g. The ALP (9 h) was 1482.2 IU/L and 1393 IU/L, the ALT (9 h) was 37.6 IU/L and 35 IU/L and the AST (9 h) was 69 IU/L and 73.8 IU/L. For the same molecule, the BUN (9 h) was 10.4 mg/dL and 7.4 mg/dL, the CRE (9 h) was 0.1 mg/dL and 0.2 mg/dL and the Ca (9 h) was 10.4 mg/dL and 10.7 mg/dL. For the same molecule, the Cl (9 h) was 106 meq/L and 106.4 meq/L, the GLC (9 h) was 178.6 mg/dL and 161 mg/dL and the IP (9 h) was 9.7 mg/dL and 9.3 mg/dL. The K (9 h) was 3.8 meq/L and 4.2 meq/L, the Na (9 h) was 143 meq/L and 141.8 meq/L and the PL (9 h) was 126.6 mg/dL and 131.6 mg/dL. The RALB (9 h) was 3 g/dL and 2.5 g/dL, the TBIL (9 h) was 0.034 mg/dL and 0.072 mg/dL and the TC (9 h) was 72.6 mg/dL and 78 mg/dL. For the same molecule, the TP (9 h) was 5.4 g/dL and 5.3 g/dL, the gamma-GTP (9 h) was 1 IU/L and 1.6 IU/L and the TERMINAL_BW (24 h) was 205 g and 201 g. For the same molecule, the APTT (24 h) was 21 s and 17.8 s, the Bas (24 h) was 0% and the Eos (24 h) was 0.6% and 1.2%. The Fbg (24 h) was 300.2 mg/dL and 289 mg/dL, the Hb (24 h) was 13.1 g/dL and 13.5 g/dL and the Ht (24 h) was 39.3% and 40.6%. For the same molecule, the Lym (24 h) was 81.8% and 74.6%, the MCH (24 h) was 21.4 pg and 20.6 pg and the MCHC (24 h) was 33.3% and 33.4%. The MCV (24 h) was 64.2 fL and 61.7 fL, the Mono (24 h) was 2.2% and 3% and the Neu (24 h) was 15.2% and 21%. The PT (24 h) was 16.5 s and 14 s, the Plat (24 h) was 120.5 x10_4/uL and 107.8 x10_4/uL and the RBC (24 h) was 612.4 x10_4/ul and 658.4 x10_4/ul. For the same molecule, the Ret (24 h) was 7.8% and 7.5%, the WBC (24 h) was 90.3 x10_2/uL and 86.9 x10_2/uL and the KIDNEY_L (24 h) was 0.9 g. For the same molecule, the KIDNEY_R (24 h) was 0.9 g and 0.8 g and the KIDNEY_TOTAL (24 h) was 1.9 g and 1.7 g.
